{
  "source": "patent US12721832B2",
  "about": "“Anti-senescence plant polyphenol drug downregulating senescence-related secretory phenotype and use thereof” (BYHEALTH CO., LTD., priority 2021, dated 2026)",
  "system": "aged C57BL/6 mice",
  "test": "Physical ability test in aged mice",
  "type": "in vivo",
  "conditions": "males and females, PCC1 biweekly",
  "method": "N=5. ^, P>0.05; **, P<0.01.\nN=5/group. , P>0.05; ***, P<0.001.\nAll testing began on day 5 after the last placebo or drug treatment. Maximum walking speed was assessed using the accelerated RotaRod System (TSE System, Chesterfiled, Mo.). The mice were trained on the RotaRod for 3 days at speeds of 4, 6 and 8 r.p.m, lasted for 200 seconds on the 1st, 2nd and 3rd days. On the test day, the mice were placed on the RotaRod, and the test was performed starting at a speed of 4 r.p.m. The rotation speed was accelerated from 4 to 40 r.p.m at intervals of 5 minutes. When the mice fell off the RotaRod, the speed was recorded. The final results were averaged from 3 or 4 trials and normalized to baseline speed. […]\nForelimb grip strength (N) was measured using a Grip Strength Meter (Columbus Instruments, Columbus, Ohio), and the results were averaged from more than 10 trials. […] The mice were only allowed to grasp the wire with their forelimbs, and the hang time was normalized to body weight and expressed as hang duration (sec) x body weight (g). […] Their daily activity and food intake were monitored for 24 h (12 hours of light and 12 hours of dark) by a Comprehensive Laboratory Animal Monitoring System (CLAMS). […] The distance was recorded after the test, and the total work (KJ) was calculated with the following formula: mass (kg)×g (9.8 m/s^2)×distance (m)×sin) (5°).",
  "data": [
    {"smiles": "Oc1cc(O)c2c(c1)O[C@H](c1ccc(O)c(O)c1)[C@H](O)[C@H]2c1c(O)cc(O)c2c1O[C@H](c1ccc(O)c(O)c1)[C@H](O)[C@H]2c1c(O)cc(O)c2c1O[C@H](c1ccc(O)c(O)c1)[C@H](O)C2", "note": "[PCC1, procyanidin C1]", "values": [
      {"measurement": "physical function during the last 2 months of life vs vehicle", "result": "did not show a significant decrease"}
    ]}
  ]
}
